ChEMBL document CHEMBL4145550, “Synthesis of N-(1-(6-acetamido-5-phenylpyrimidin-4-yl) piperidin-3-yl) amide derivatives as potential inhibitors for mitotic kinesin spindle protein” (Eur J Med Chem, 2018)
pIC50: −log10 of the molar value.

Legend:
[1] = target: T1, Kinesin-like protein KIF11 (Homo sapiens, UniProt P52732); test: Inhibition of mitotic kinesin Eg5 (unknown origin)
T1 sequence (P52732 whole entry): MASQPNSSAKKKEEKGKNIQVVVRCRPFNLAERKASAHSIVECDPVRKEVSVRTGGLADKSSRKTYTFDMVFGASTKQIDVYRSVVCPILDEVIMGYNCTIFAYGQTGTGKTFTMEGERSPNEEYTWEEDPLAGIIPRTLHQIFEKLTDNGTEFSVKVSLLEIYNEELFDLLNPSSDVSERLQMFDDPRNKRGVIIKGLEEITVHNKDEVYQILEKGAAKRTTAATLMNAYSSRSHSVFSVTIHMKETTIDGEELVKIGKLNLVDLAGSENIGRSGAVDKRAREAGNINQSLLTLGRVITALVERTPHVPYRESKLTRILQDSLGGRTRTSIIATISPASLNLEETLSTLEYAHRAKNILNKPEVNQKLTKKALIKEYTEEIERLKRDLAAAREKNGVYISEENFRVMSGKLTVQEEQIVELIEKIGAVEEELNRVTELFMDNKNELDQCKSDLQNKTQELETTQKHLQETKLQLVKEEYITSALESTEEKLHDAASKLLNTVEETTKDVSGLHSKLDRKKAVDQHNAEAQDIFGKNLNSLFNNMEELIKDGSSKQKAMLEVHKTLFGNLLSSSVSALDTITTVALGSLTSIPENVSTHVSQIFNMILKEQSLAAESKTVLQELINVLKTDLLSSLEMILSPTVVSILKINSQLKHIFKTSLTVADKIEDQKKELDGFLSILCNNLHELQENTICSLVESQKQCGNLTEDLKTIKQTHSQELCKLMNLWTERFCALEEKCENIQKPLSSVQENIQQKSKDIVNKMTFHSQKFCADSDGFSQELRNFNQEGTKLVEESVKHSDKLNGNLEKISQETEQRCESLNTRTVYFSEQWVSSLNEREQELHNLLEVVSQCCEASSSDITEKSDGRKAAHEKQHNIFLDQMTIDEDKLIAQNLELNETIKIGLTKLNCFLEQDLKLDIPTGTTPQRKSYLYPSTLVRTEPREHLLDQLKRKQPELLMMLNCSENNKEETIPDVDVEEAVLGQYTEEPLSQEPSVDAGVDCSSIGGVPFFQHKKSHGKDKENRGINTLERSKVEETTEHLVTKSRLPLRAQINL

[2] = target: T1, Kinesin-like protein KIF11; test: Inhibition of human mitotic kinesin Eg5 motor domain (1 to 368 residues) assessed as reduction in steady-state basal ATPase activity using ATP as substrate by pyruvate kinase/lactate dehydrogenase enzyme coupled assay

SMILES | pIC50 [1] | pIC50 [2]
COc1ccc(Nc2nc3cc(C(=O)O)ccc3n2Cc2ccccc2C(F)(F)F)cc1F | 6.34 | –
CC(=O)Nc1ncnc(N2CCCC(NC(=O)COc3cccc(Cl)c3)C2)c1-c1ccccc1 (centres undefined) | – | 5.04
CC(=O)Nc1ncnc(N2CCCC(NC(=O)c3cccc(C(F)(F)F)c3)C2)c1-c1ccccc1 (centres undefined) | – | 5.31
CC(=O)Nc1ncnc(N2CCCC(NC(=O)Cc3cccc(F)c3)C2)c1-c1ccccc1 (centres undefined) | – | 4.94
